{"source": "ChEMBL document CHEMBL1151078", "about": "“An efficient synthesis of short-chain sphingomyelin analogs and their susceptibility to hydrolysis catalyzed by sphingomyelinase” (1997)"}
{"tested_on": "Bacillus cereus", "assay": "Initial velocity (v) of the hydrolysis catalyzed by Bacillus cereus sphingomyelinase was measured", "assay_type": "functional", "units": {"Velocity": "µM/min/mg"}}
{"smiles": "CCCCCCC[C@H](O)[C@H](COP(=O)([O-])OCC[N+](C)(C)C)NC(=O)CCCCC", "Velocity": 5.08}
{"smiles": "CCCCC/C=C/[C@@H](O)[C@H](COP(=O)([O-])OCC[N+](C)(C)C)NC(=O)CCCCC", "Velocity": 136.31}
{"smiles": "CCCCCCC[C@@H](O)[C@H](COP(=O)([O-])OCC[N+](C)(C)C)NC(=O)CCCCC", "Velocity": 109.15}
{"smiles": "CCCCC/C=C/[C@H](O)[C@H](COP(=O)([O-])OCC[N+](C)(C)C)NC(=O)CCCCC", "Velocity": 11.17}
